According to PMC6471485, “Selective Inhibitors of a Human Prolyl Hydroxylase (OGFOD1) Involved in Ribosomal Decoding” (Chemistry (Weinheim an Der Bergstrasse, Germany), 2019):
Entries after “also recorded” stand apart in the source; their conditions may differ.

Tests used:
NO66 = biological target: T1, NO66 (Homo sapiens, UniProt Q9H6W3); test: NO66 IC50 determination, RapidFire MS; type: biochemical
T1 construct: 116-641 were cloned into pFB-LIC-Bse; His (N); made in house; host or cells: Sf9 insect cells
T1 sequence (Q9H6W3 116-641 limits assumed): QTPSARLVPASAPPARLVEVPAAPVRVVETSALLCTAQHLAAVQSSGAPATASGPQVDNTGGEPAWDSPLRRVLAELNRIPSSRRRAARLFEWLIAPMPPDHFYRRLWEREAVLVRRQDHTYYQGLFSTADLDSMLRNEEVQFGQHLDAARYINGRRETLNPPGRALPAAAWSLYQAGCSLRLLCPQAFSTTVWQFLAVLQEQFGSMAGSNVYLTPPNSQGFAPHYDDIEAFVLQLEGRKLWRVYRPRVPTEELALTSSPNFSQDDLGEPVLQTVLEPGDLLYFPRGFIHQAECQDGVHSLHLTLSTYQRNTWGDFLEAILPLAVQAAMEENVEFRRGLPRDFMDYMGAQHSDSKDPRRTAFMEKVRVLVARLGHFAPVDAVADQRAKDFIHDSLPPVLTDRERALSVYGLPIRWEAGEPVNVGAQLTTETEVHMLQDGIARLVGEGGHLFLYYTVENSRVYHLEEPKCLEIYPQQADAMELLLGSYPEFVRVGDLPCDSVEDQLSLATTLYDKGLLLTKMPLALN
Experimental: reactions were quenched after 4 min. KDM4A inhibition was tested as described previously using a formaldehyde dehydrogenase (FDH) assay.[9] JARID1B and JARID1C inhibition was tested as described previously using reported AlphaScreen-based assays.[10] MINA531-464 and NO66116-641 were cloned into pFB-LIC-Bse, and the N-terminal His-tagged proteins were produced in Sf9 insect cells. The MINA53 peptide substrate Rpl27a […]
(Gly31 – Pro49 […]) and the NO66 peptide substrate Rpl8
(Asn205 – Thr224 […]) were synthesized by Peptide Protein
Research Ltd (Fareham, Hampshire, UK) to >95% purity. IC50 determinations were performed in 384-well polypropylene plates (Greiner Bio One, Cat Number 781096), and compound dispenses were performed using an ECHO 550 acoustic dispenser (Labcyte, Sunnyvale, CA). […]
RapidFire integrator software (Agilent). Percent conversion was calculated in Excel, and IC50 curves were generated using Prism v. […]
Assays consisted of enzyme (2 µM), inhibitor (200 µM), MnCl2 (50 µM), and SYPRO Orange (1:5000 dilution), all prepared in 50 mM HEPES, pH 7.5. […] An Opticon thermal cycler (MJ Research Inc) was used to control temperature and measure fluorescence. […]
CPMG Binding Experiments: Binding of the inhibitors to the proteins was monitored using Carr-Purcell-Meiboom-Gill (CPMG)-edited 1H spectra. […]

PHD2181-426 = biological target: T2, PHD2181-426 (Homo sapiens, UniProt Q9GZT9); test: wLOGSY NMR binding experiment with PHD2; conditions: 400 µM inhibitor, 50 µM PHD2
T2 construct: 181-426 (1 µM) was
T2 sequence (Q9GZT9 181-426 limits assumed): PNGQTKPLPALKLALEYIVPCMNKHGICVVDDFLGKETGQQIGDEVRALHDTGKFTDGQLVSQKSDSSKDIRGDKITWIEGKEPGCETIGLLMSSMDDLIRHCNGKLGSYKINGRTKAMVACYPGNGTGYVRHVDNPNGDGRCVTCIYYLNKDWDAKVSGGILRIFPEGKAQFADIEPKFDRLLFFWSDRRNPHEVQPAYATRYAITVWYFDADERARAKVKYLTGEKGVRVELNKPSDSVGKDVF

For `Cn1c(O)c(C(=O)CCc2ccccc2)c(=O)n(C)c1=O` [compound 26], the IC50 (NO66) was > 100 µM and the “binding to PHD2 by wLOGSY NMR, in words” value (PHD2181-426; listed as CCT3) was “weaker; also recorded: only weak binding to PHD2”.

In the case of `Cn1c(O)c(C(=O)CCc2cccs2)c(=O)n(C)c1=O` [compound 42], the IC50 (NO66) is reported as > 100 µM and the “binding to PHD2 by wLOGSY NMR, in words” value (PHD2181-426; listed as CCT4) is reported as “weaker; also recorded: only weak binding to PHD2”.
